# From patent publication US5318776A, “Composition for preventing graying of the hair” (priority 1988, dated 1994)
# Where two headings read alike, the source gives them in different places.
# Legend:
# [1] = Sensory test: degree of change in smell after standing at 30° C. for 3 months;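 on Stability S.E. (Sensory Evaluation): double circle means no smell deterioration on a four-grade scale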; format: physicochemical; details: for Stability S.E. (Sensory Evaluation) / deterioration in smell (in words): 30° C., 3 months
# Experimental: (§1) One month thereafter, regenerated hair was collected from a constant area and the rate (%) of generated grayed hair to all the number of hair collected was estimated. In addition, the aforementioned hair tonic type preparations were allowed to stand at 30° C. for 3 months and the residual amount of the test compounds therein was examined by liquid chromatography as well as the degree of change in smell was also evaluated by means of sensory test.
# as §1, with “compositions” for “hair tonic type preparations”, “by” for “by means of”, “test. […] In addition, the abbreviation P means the averaged added molar number of ethylene oxide residues.” for “test.”
# [2] = test system: grayed hair (melanocytes); test: Inhibition of generation of grayed hair in stressed black mice; format: in vivo; details: for Rate of Grayed Hair (%): 0.1 ml twice a day, 1 month
# Experimental: It is known that stress is one of the causes of graying of the hair. […] Moreover, the stability of the composition with time was also estimated.
# as §1
# as §1, with “compositions” for “hair tonic type preparations”, “by” for “by means of”, “test. […] In addition, the abbreviation P means the averaged added molar number of ethylene oxide residues.” for “test.”
# grayed hair = test: Half-Head technique application to scalp of men having grayed hair; format: in vivo, men (40 to 60 years old)
# Experimental: Then, the effects of preventing graying of the hair and restoring grayed hair to its natural color were evaluated by comparing the conditions of the portions observed before and after the application of Samples and the results obtained were listed in the following Table VIII. […]
# Then, the effectiveness of the hair cream of the invention and that of Comp.
# [3] = Stability: residual amount of test compound after standing at 30° C. for 3 months, liquid chromatography; format: physicochemical
# Experimental: as §1
# as §1, with “compositions” for “hair tonic type preparations”, “by” for “by means of”, “test. […] In addition, the abbreviation P means the averaged added molar number of ethylene oxide residues.” for “test.”
# [4] = Table V, 0.05% test compound in hair tonic, control 17.1
# [5] = Examples 3 to 5, Half-Head, men, 3 months
# [6] = hair tonic, Table V, 0.05% in hair tonic, 30° C., 3 months, read-out: Stability Residue(%)
# [7] = Example 7, hair cream as in Example 5
# [8] = Table III, 0.1% test compound in hair tonic, control 16.5
# [9] = hair tonic, Table III, 0.1% in hair tonic, 30° C., 3 months, read-out: Stability Residue(%)
SMILES,"quality deterioration such as giving out of bad smell ([1]; Example 7, hair cream)",effect of preventing graying of the hair and restoring grayed hair to its natural color (in words) (grayed hair; [7]),"stability (in words) ([3]; Example 7, hair cream)","Stability S.E. (Sensory Evaluation) ([1]; Table III, 0.1% in hair tonic)","Rate of Grayed Hair (%) [2, 8]",also measured
COc1nc2c(N)ncnc2n1[C@@H]1O[C@@H]2COP(=O)(O)O[C@H]2[C@H]1O [8-methoxy cAMP-Na],,,,,,"Stability S.E. (Sensory Evaluation) ([1]; Table V, 0.05% in hair tonic): .circleincircle.; Rate of Grayed Hair (%) [2, 4]: 4.5%; effect of preventing graying of the hair and restoring grayed hair to its natural color (in words) (grayed hair; [5]): remarkable effects of preventing graying of the hair and restoring grayed hair to its natural color; remaining at 2190 h [3, 6]: 99.9%"
Nc1ncnc2c1nc(SCc1ccccc1)n2[C@@H]1O[C@@H]2COP(=O)(O)O[C@H]2[C@H]1O [8-benzylthio cAMP-Na],,,,,,"quality deterioration such as giving out of bad smell ([1]; Example 6, hair tonic): did not cause quality deterioration such as giving out of bad smell; effect of preventing graying of the hair and restoring grayed hair to its natural color (in words) (grayed hair; Example 6, hair tonic as in Example 3): the same effect of preventing graying of the hair and restoring grayed hair to its natural color as in Example 3; stability (in words) ([3]; Example 6, hair tonic): stable"
Nc1ncnc2c1nc(Cl)n2[C@@H]1O[C@@H]2COP(=O)(O)O[C@H]2[C@H]1O [8-chloro cAMP-Na],did not cause quality deterioration such as giving out of bad smell,the same effect of preventing graying of the hair and restoring grayed hair to its natural color as in Example 5,stable,,,
CCCCCCCCn1cnc2c(ncn2[C@@H]2O[C@@H]3COP(=O)([O-])O[C@H]3[C@H]2O)c1=N.[Na+] [1-octyl cAMP-Na],did not cause quality deterioration such as giving out of bad smell,the same effect of preventing graying of the hair and restoring grayed hair to its natural color as in Example 5,stable,,,
CCCCSc1nc2c(N)ncnc2n1[C@@H]1O[C@@H]2COP(=O)(O)O[C@H]2[C@H]1O [8-butylthio cAMP-Na],did not cause quality deterioration such as giving out of bad smell,the same effect of preventing graying of the hair and restoring grayed hair to its natural color as in Example 5,stable,,,"Stability S.E. (Sensory Evaluation) ([1]; Table V, 0.05% in hair tonic): .circleincircle.; Rate of Grayed Hair (%) [2, 4]: 6.5%; remaining at 2190 h [3, 6]: 99.9%"
Nc1ncnc2c1nc(Sc1ccc(Cl)cc1)n2[C@@H]1O[C@@H]2COP(=O)(O)O[C@H]2[C@H]1O [8-4-chlorophenylthio cAMP-Na],,,,,,"Stability S.E. (Sensory Evaluation) ([1]; Table V, 0.05% in hair tonic): .circleincircle.; Rate of Grayed Hair (%) [2, 4]: 6.0%; remaining at 2190 h [3, 6]: 99.9%"
COc1nc2c(N)ncnc2n1[C@@H]1O[C@@H]2COP(=O)(O)O[C@H]2[C@H]1O [8-methoxy cAMP],,,,.circleincircle.,7.8%,"remaining at 2190 h [3, 9]: 99.7%"
CSc1nc2c(N)ncnc2n1[C@@H]1O[C@@H]2COP(=O)(O)O[C@H]2[C@H]1O [8-methylthio cAMP],,,,.circleincircle.,8.0%,"remaining at 2190 h [3, 9]: 99.9%"
Nc1ncnc2c1nc(SCc1ccccc1)n2[C@@H]1O[C@@H]2COP(=O)(O)O[C@H]2[C@H]1O [8-benzylthio cAMP],,,,.circleincircle.,7.2%,"remaining at 2190 h [3, 9]: 100%"
CNc1nc2c(N)ncnc2n1[C@@H]1O[C@@H]2COP(=O)(O)O[C@H]2[C@H]1O [8-methylamino cAMP-Na],did not cause quality deterioration such as giving out of bad smell,the same effect of preventing graying of the hair and restoring grayed hair to its natural color as in Example 5,stable,,,
CCn1cnc2c(ncn2[C@@H]2O[C@@H]3COP(=O)([O-])O[C@H]3[C@H]2O)c1=N.[Na+] [1-ethyl cAMP-Na],did not cause quality deterioration such as giving out of bad smell,the same effect of preventing graying of the hair and restoring grayed hair to its natural color as in Example 5,stable,,,
CCCCn1cnc2c(ncn2[C@@H]2O[C@@H]3COP(=O)([O-])O[C@H]3[C@H]2O)c1=N.[Na+] [1-butyl cAMP-Na],did not cause quality deterioration such as giving out of bad smell,the same effect of preventing graying of the hair and restoring grayed hair to its natural color as in Example 5,stable,,,
Cn1cnc2c(ncn2[C@@H]2O[C@@H]3COP(=O)(O)O[C@H]3[C@H]2O)c1=N [1-methyl cAMP],,,,.circleincircle.,8.2%,"Stability Residue(%) ([3]; Table III, 0.1% in hair tonic, 30° C., 3 months, 131400 min): 99.6%"
"O=P1(O)OC[C@H]2O[C@@H](n3cnc4c3ncn3ccnc43)[C@H](O)[C@@H]2O1 [1,N^6 -etheno cAMP]",,,,.circleincircle.,7.5%,"remaining at 2190 h [3, 9]: 99.8%"
"O=P1(O)OC[C@H]2O[C@@H](n3cnc4c3ncn3ccnc43)[C@H](O)[C@@H]2O1 [1,N^6 -etheno cAMP-K]",,,,,,effect of preventing graying of the hair and restoring grayed hair to its natural color (in words) (grayed hair; [5]): remarkable effects of preventing graying of the hair and restoring grayed hair to its natural color
"CCCC(=O)Nc1ncnc2c1ncn2[C@@H]1O[C@@H]2COP(=O)(O)O[C@H]2[C@H]1OC(=O)CCC [N^6,O^2' -dibutyryl cAMP, reference compound]",,,,,9.1%,"deterioration in smell (in words) ([1]; Example 1): high deterioration in smell; effect of inhibiting generation of grayed hair (in words) ([2]; Example 1, 0.1%): exhibits the grayed hair inhibitory effect; remaining at 2190 h ([3]; hair tonic, Stability Residue(%)): 86.4%"
"CCCC(=O)Nc1ncnc2c1ncn2[C@@H]1O[C@@H]2COP(=O)(O)O[C@H]2[C@H]1OC(=O)CCC [N^6,O^2' -dibutyryl cAMP-Na, reference compound]",,,,,,"deterioration in smell (in words) ([1]; Example 2): substantial deterioration in smell; effect of inhibiting generation of grayed hair (in words) ([2]; Example 2, 0.05%): exhibits the aforementioned effect; Rate of Grayed Hair (%) [2, 4]: 8.8%; Stability Residue(%) ([3]; hair tonic, 2190 h): 84.5%"
Nc1ncnc2c1nc(F)n2[C@@H]1O[C@@H]2COP(=O)(O)O[C@H]2[C@H]1O [8-fluoro cAMP],,,,.circleincircle.,7.6%,"remaining at 2190 h [3, 9]: 99.5%"
CSc1nc2c(N)ncnc2n1[C@@H]1O[C@@H]2COP(=O)(O)O[C@H]2[C@H]1O [8-methylthio cAMP-Na],did not cause quality deterioration such as giving out of bad smell,the same effect of preventing graying of the hair and restoring grayed hair to its natural color as in Example 5,stable,,,
CCN(CC)CC.Cn1cnc2c(ncn2[C@@H]2O[C@@H]3COP(=O)(O)O[C@H]3[C@H]2O)c1=N [1-methyl cAMP-triethylammonium],,,,,,effect of preventing graying of the hair and restoring grayed hair to its natural color (in words) (grayed hair; [5]): remarkable effects of preventing graying of the hair and restoring grayed hair to its natural color
Nc1ncnc2c1nc(Sc1ccccc1)n2[C@@H]1O[C@@H]2COP(=O)(O)O[C@H]2[C@H]1O [8-phenylthio cAMP],,,,.circleincircle.,7.1%,"remaining at 2190 h [3, 9]: 100%"
